Experimental data as given in publication PMC13524802, “Unique adaptations in sulfatases underpin colonic mucin degradation by Akkermansia muciniphila” (Nature Microbiology, 2026).

Columns and labels:
Amuc0491^3S-Gal/GalNAc = target: T1, Amuc0491^3S-Gal/GalNAc (Akkermansia muciniphila, UniProt B2UNV9); test: HPAEC and microfluidic desulfation assays; assay type: biochemical; details: 5 mM CaCl2, 150 mM NaCl; kinetics (kcat/Km only) with labelled compound
T1 construct: gene Amuc_0491; recombinant, N-terminal His6 (pETite), E. coli TUNER (DE3)
T1 sequence (B2UNV9 entry or part of it): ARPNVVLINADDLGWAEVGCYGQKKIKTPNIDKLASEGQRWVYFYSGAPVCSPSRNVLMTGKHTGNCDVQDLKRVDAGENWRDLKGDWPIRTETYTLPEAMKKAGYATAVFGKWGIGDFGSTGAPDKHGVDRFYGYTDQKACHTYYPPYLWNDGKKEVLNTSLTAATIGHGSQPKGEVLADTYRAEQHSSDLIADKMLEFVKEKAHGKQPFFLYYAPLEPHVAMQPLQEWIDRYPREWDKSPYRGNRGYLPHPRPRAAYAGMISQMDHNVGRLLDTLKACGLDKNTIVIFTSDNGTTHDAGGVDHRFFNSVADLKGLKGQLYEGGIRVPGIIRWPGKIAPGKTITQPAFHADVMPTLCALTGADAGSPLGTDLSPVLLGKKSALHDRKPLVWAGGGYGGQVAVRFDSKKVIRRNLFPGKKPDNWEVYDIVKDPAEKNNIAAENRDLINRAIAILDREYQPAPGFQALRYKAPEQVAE

Amuc1755^4S-Gal [1] = target: T2, Amuc1755^4S-Gal (Akkermansia muciniphila, UniProt B2UML7, E464A); test: HPAEC and TLC desulfation assay; assay type: biochemical; details: overnight, 37 °C
T2 construct: gene Amuc_1755; recombinant, N-terminal His6 (pETite), E. coli TUNER (DE3); monomer
T2 sequence (B2UML7 entry or part of it E464A): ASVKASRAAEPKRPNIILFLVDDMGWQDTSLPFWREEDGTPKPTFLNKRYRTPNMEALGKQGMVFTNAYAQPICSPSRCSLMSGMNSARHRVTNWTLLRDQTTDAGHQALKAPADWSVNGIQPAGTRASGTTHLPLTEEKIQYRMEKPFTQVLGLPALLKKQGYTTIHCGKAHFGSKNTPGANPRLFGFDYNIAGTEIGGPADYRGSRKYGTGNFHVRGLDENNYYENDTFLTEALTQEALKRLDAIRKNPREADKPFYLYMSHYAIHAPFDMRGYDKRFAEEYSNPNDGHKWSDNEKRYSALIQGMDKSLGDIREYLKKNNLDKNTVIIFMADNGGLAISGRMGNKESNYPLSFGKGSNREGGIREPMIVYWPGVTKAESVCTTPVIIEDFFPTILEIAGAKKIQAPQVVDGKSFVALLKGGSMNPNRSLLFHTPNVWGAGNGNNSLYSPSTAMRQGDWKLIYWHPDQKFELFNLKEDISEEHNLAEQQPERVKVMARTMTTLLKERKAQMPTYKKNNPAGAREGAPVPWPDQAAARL

Amuc1755^4S-Gal [2] = target: T3, Amuc1755^4S-Gal (Akkermansia muciniphila, UniProt B2UML7, E464G); test: HPAEC and TLC desulfation assay; assay type: biochemical; details: overnight, 37 °C
T3 construct: gene Amuc_1755; recombinant, N-terminal His6 (pETite), E. coli TUNER (DE3); monomer
T3 sequence (B2UML7 entry or part of it E464G): as the sequence (B2UML7 entry or part of it E464A) above, with A441G counted along it

[3] = target: Amuc1033^6S-GlcNAc (Akkermansia muciniphila) (UniProt B2UQX4); test: SEC-MALS; size-exclusion chromatography coupled to light scattering (90°) and refractive index; Agilent BioSEC Advance 300 Å column; 20 mM Tris-HCl pH 7.4, 150 mM NaCl; calibrated with BSA

Compound | HPAEC and microfluidic desulfation assays (Amuc0491^3S-Gal/GalNAc) | HPAEC and TLC desulfation assay (Amuc1755^4S-Gal [1]) | HPAEC and TLC desulfation assay (Amuc1755^4S-Gal [2]) | stoichiometry N [3]
O=S(=O)(O)O[C@H]1[C@@H](O)[C@@H](CO)OC(O)[C@@H]1O (stereo partly drawn) [3S-Gal, O3 sulfated D-galactose] | which desulfate O3 sulfated D-galactose (3S-Gal)-containing substrates | – | – | –
CC(=O)N[C@H]1C(O)O[C@H](CO)[C@H](O)[C@@H]1OS(=O)(=O)O (stereo partly drawn) [3S-GalNAc, O3 sulfated N-acetyl-D-galactosamine] | only Amuc0491^3S-Gal/GalNAc was capable of desulfating O3 sulfatedN-acetyl-D-galactosamine (3S-GalNAc) | – | – | –
O=S(=O)(O)O[C@@H]1[C@H](O)[C@@H](O)C(O)O[C@@H]1CO (stereo partly drawn) [4S-Gal, O4 sulfated D-galactose] | – | but reduced activity on 4S-Gal | but reduced activity on 4S-Gal | –
CC(=O)N[C@H]1C(O)O[C@H](CO)[C@H](OS(=O)(=O)O)[C@@H]1O (stereo partly drawn) [4S-GalNAc, O4 sulfated N-acetyl-D-galactosamine] | – | Mutation of Glu464 to Ala and Gly enabled the Amuc1755^4S-Gal to work on 4S-GalNAc | Mutation of Glu464 to Ala and Gly enabled the Amuc1755^4S-Gal to work on 4S-GalNAc | –
Amuc1033^6S-GlcNAc (from UniProt B2UQX4 1-581) (enzyme) | – | – | – | 2
